Experimental data as given in patent EP1452605A1, “Method for determining antiviral activity” (Universiteit Utrecht Holding B.V., priority 2003, dated 2004).

What was measured:
41+215Y = test: Drug susceptibility assay (cell-killing MTT assay) in MT-2 cells; conditions: AZT-resistant strain 41+215Y, 5 days
Experimental: (§1) The cells were maintained at 37°C, 5% CO2. One day prior to the experiments, the cells were passaged 1:1 in a concentration of 1 × 10^6 cells/ml.
(§2) The genes that contain the drug resistance mutations are excised from the clinical isolates and cloned into the genetic background of HXB2. Thus all tested HIV-1 strains have the same genetic background. […] This strain contains an insertion of two a.a. between codons 68 and 69 of RT as well as an a.a. change at codon 67.
(§3) After 5 days of incubation a cellular viability assay was performed as described above. In this case, the amount of formazan reflects the number of cells protected by the drug against killing by the virus and is used as a read out for drug susceptibility.

HIV-1HXB2 [1] = test: HIV-1 infection of PBL, p24-core antigen ELISA; type: cell-based; conditions: Human immunodeficiency virus 1, 168 h; PBL infected with HIV-1HXB2, p24 antigen after 7 days
Experimental: To correct for the input virus, an extra control consisting of medium containing the same amount of input virus as added to the cells was included in the experiment. The amount of p24 in this control was subsequently subtracted from the p24 values of the samples in order to obtain the exact amount of p24 produced by the cells. p24-core antigen quantification by ELISA After 2 or 7 days incubation, samples of the supernatants were collected, inactivated by addition of Empigen (Calbiochem, La Jolla, CA, USA) and by heat inactivation at 56°C for 30 min. p24-core antigen concentration was determined by an enzyme linked immunoabsorbent assay (ELISA) (AMPAK™, DAKO, Cambridgeshire, UK) as described previously ^18,19. The optical density values were converted into p24 concentration (ng/ml) with the use of a calibration curve made by serial dilutions of recombinant p24 protein (NIBSC, UK) that was submitted to the same treatment as the samples.

HIV-1HXB2 [2] = test: Reverse transcription assay in PBMC: (-) strong stop and gag DNA by real-time Taqman PCR; type: cell-based; conditions: 10h after infection
Experimental: PBMC infection with HIV-1Ba-L or HIV-1HXB2 for real-time Taqman PCR The ability of HIV-1Ba-L to enter the cells in the presence of APHS was tested using DS as positive control (entry assay). The amount of HIV-1HXB2 reverse transcription products in the presence of APHS was also tested, using AZT as positive control (reverse transcription assay). Before infection, PHA-stimulated PBMC from the PBMC batch were pre-incubated with different concentrations of APHS, DS or AZT for 24 h. Afterwards, cells were washed and 1 × 10^6 PBMC were incubated for 40 min with HIV-1Ba-L or HIV-1HXB2 at an M.O.I. of 0.0025 and with appropriate concentrations of APHS, AZT, DS or medium in the presence of 1/20 concentrated M buffer (Roche) and 4U/ml DNase (Roche) to digest possible contaminating viral DNA associated with the virions. Afterwards PBMC were washed and resuspended in medium with or without compounds. Cells were treated with 1 mg/ml Pronase (Roche) to remove virus particles bound to the cells. […] At different time points, 1.0 × 10^6 cells were added to 900 µl Nuclisens lysis buffer (Organon Teknika, Boxtel, The Netherlands) containing 40 µl silica to bind total nucleic acids (Nuclisens isolation kit). For the entry assay, samples were collected 2h after the start of the infection and for the reverse transcription assays samples were collected 2, 7 and 10h after the start of the infection.
HIV RNA and DNA were extracted from samples of infected cells according to a method described before ^23. Briefly, after 10 min of mixing the silica and lysis buffer, tubes were shortly centrifuged at 13,000 rpm and supernatant was discarded. Free non-nucleic acid components were removed by washing the silica particles twice with Nuclisens washing buffer, twice with 70 % ethanol and once with acetone. The silica pellet was dried for 10 min at 56 °C. Total nucleic acids were eluted by resuspending the pellet in 100 µl nuclease-free water. After mixing the tubes for 10 min at 56 °C, tubes were shortly centrifuged and the supernatant was transferred to a new tube and stored at -20 °C.
Real-time Taqman PCR is based on cleavage of a probe, hybridized to the target sequence by 5'-3' nuclease activity of Taq DNA polymerase during amplification, as described previously ^24. Briefly, target sequence-specific forward and reverse primers prime the amplification reaction. The probe contains a reporter dye at the 5' end and a quencher dye at the 3' end. When both dyes are attached to the probe, reporter dye emission is quenched. The probe is displaced from the target during each polymeration cycle. Once separated from the quencher, the reporter dye emits its characteristic fluorescence, which can then be measured. The amount of fluorescence measured is proportional to the amount of PCR product.
HIV-1 gag cDNA and HIV-1 (-) strong stop and gag DNA were amplified and quantified by real-time Taqman PCR as described elsewhere ^25. Sets of primers/probes were designed according to a previous study by Zack and colleagues ^26. To quantify the amount of gag RNA in the samples, a cDNA standard curve was prepared from five-fold dilutions of extracted RNA from an HXB2 viral batch, of which the RNA amount was previously determined. To quantify (-) strong stop and gag DNA in the samples, a DNA standard curve was prepared from five-fold dilutions of DNA extracted from U1 cells, which contain two copies of the HIV-1HXB2 genome per cell. Albumin was also quantified and used for normalization of all samples.

PBMC = test: Cellular viability assay (MTT) of PBMC; conditions: PBMC viability, 7 days
HIV-1 RT = HIV-1 RT (Human immunodeficiency virus type 1 group M subtype B, UniProt P04585); test: Cell-free RT assay (primer extension); type: biochemical
Experimental: The HIV-1 RNA template (positions +1 to +368, with +1 being the capped G residue) was synthesized in vitro with T7 RNA polymerase as described previously ^27. In the reverse transcription assay, 10 ng of the RNA template was incubated with 1.5 µg calf liver tRNA ([…] total tRNA, of which approximately 1.2 pmol tRNA^lys3, Boehringer) or 20 ng of a DNA primer complementary to the primer binding site (PBS) (positions +182 to +202) in 12 µl annealing buffer (83 mM Tris-HCl pH 7.5, 125 mM KCl) at 85 °C for 2 min and 65 °C for 10 min, followed by cooling to room temperature over a 1h period. Reverse transcription was initiated by the addition of 6 µl RT buffer (9 mM MgCl2, 30 mM DTT, 150 µg/ml actinomycine D, 30 µM dATP, dGTP and dTTP and 1.5 µM dCTP), 0.5 µl [α-^32P]dCTP and 0.5 U HIV-1 RT (MRC) in the presence or absence of APHS (10, 30, 300 and 1000 µM) or 10% ethanol. The reaction was incubated for 30 min at 37 °C. The cDNA product was precipitated in 0.3 M sodiumacetate, pH 5.2 and 80% ethanol at-20°C, dissolved in formamide loading buffer and analyzed on a denaturing 6% polyacrylamide-urea sequencing gel.

HEp-2 cells = type: cell-based, Human
Experimental: HEp-2 cells were seeded in 96-wells plates in the presence of APHS for 4, 5 and 6 days. Concentrations of HEp-2 cells were determined by microscopic observation in order to have a confluent monolayer at the day of measurement. Afterwards a cellular viability assay was performed on these cells.

HXB2 = test: Drug susceptibility assay (cell-killing MTT assay) in MT-2 cells; conditions: Human immunodeficiency virus 1, HXB2, MT2, 120 h
Experimental: as §1, §2, §3

## CCCCC#CCSc1ccccc1OC(C)=O [APHS, o-(acetoxyphenyl)hept-2-ynyl sulfide]
41+215Y
  IC50: 2100 ± 1000 nM
41+215Y; Human immunodeficiency virus 1, MT2, 120 h
  IC50: 2000 nM
HIV-1HXB2 [1]
  IC50: 12 µM
HIV-1HXB2 [2]; 10 µM APHS
  gag cDNA levels versus untreated PBMC: no significant differences
HIV-1HXB2 [2]; 10 or 30 µM APHS, 5 or 1000 nM AZT
  (-) strong stop DNA copy numbers versus untreated PBMC: did not show a significant decrease
HIV-1HXB2 [2]; Human immunodeficiency virus 1, 30 µM APHS, PBMC, read-out: inhibited gag production
  inhibition at 30 µM: 60%
PBMC
  cytotoxic at concentrations above: above 30 µM
HIV-1 RT
  RT activity in the primer extension assay: no inhibition of RT activity
HIV-1 RT; 1000 µM APHS, effect probably due to the ethanol in the sample
  amount of reverse transcription product: decreased the amount of reverse transcription product
HIV-1 RT; APHS 10 to 300 µM
  cDNA formation: did not affect cDNA formation
HEp-2 cells
  cellular viability significantly decreased at concentrations above: above 10 µM
  cytotoxicity for HEp-2 cells: not cytotoxic
HXB2
  IC50: 10 µM
